# From ChEMBL document CHEMBL1201861, “Genomics of Drug Sensitity in Cancer screening data, Wellcome Trust Sanger Institute”
# pIC50: −log10 of the molar value.
# Key:
# NCI-H441 = experiment: cells; assay type: functional, cell-based; conditions: Homo sapiens;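 further: growth inhibition of NCI-H441 cells, read out with a cell viability assay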
# Description: SANGER: Inhibition of human NCI-H441 cell growth in a cell viability assay.
# NCI-H2141 = experiment: cells; assay type: functional, cell-based, Homo sapiens; conditions: Homo sapiens, NCI-H2141;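 further: growth inhibition of human NCI-H2141 cells, read out with a cell viability assay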
# Description: SANGER: Inhibition of human NCI-H2141 cell growth in a cell viability assay.
# TCC-SUP = experiment: cells; assay type: functional, cell-based; conditions: Homo sapiens;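 further: growth inhibition of TCC-SUP cells, read out with a cell viability assay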
# Description: SANGER: Inhibition of human TCCSUP cell growth in a cell viability assay.
# UMUC3 = experiment: cells; assay type: functional, cell-based; conditions: Homo sapiens;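 further: growth inhibition of human UM-UC-3 cells, read out with a cell viability assay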
# Description: SANGER: Inhibition of human UM-UC-3 cell growth in a cell viability assay.
# RT-112 = experiment: cells; assay type: functional, cell-based; conditions: Homo sapiens
# Description: SANGER: Inhibition of human RT-112 cell growth in a cell viability assay.
# MCF7 = experiment: cells; assay type: functional, cell-based; conditions: Homo sapiens;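 further: growth inhibition of human MCF7 cells, read out with a cell viability assay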
# Description: SANGER: Inhibition of human MCF7 cell growth in a cell viability assay.
# OAW-28 = experiment: cells; assay type: functional, cell-based; conditions: Homo sapiens;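 further: growth inhibition of OAW-28 cells, read out with a cell viability assay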
# Description: SANGER: Inhibition of human OAW-28 cell growth in a cell viability assay.
# CAL-39 = experiment: cells; assay type: functional, cell-based; conditions: Homo sapiens;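 further: cell viability assay measuring growth inhibition of CAL-39 cells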
# Description: SANGER: Inhibition of human CAL-39 cell growth in a cell viability assay.
# TUR = experiment: cells; assay type: functional, cell-based, Homo sapiens; conditions: Homo sapiens, TUR;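 further: growth inhibition of human TUR cells, read out with a cell viability assay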
# Description: SANGER: Inhibition of human TUR cell growth in a cell viability assay.
# HT-1080 = experiment: cells; assay type: functional, cell-based; conditions: Homo sapiens
# Description: SANGER: Inhibition of human HT-1080 cell growth in a cell viability assay.
# Ca-Ski = experiment: cells; assay type: functional, cell-based; conditions: Homo sapiens;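 further: cell viability assay measuring inhibition of Ca-Ski cell growth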
# Description: SANGER: Inhibition of human Ca-Ski cell growth in a cell viability assay.
# LC4-1 = experiment: cells; assay type: functional, cell-based, Homo sapiens; conditions: Homo sapiens, LC4-1;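 further: growth inhibition of LC4-1 cells, read out with a cell viability assay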
# Description: SANGER: Inhibition of human LC4-1 cell growth in a cell viability assay.
# NCI-H358 = experiment: cells; assay type: functional, cell-based; conditions: Homo sapiens;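 further: growth inhibition of NCI-H358 human cells, read out with a cell viability assay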
# Description: SANGER: Inhibition of human NCI-H358 cell growth in a cell viability assay.
# BL-70 = experiment: SANGER: Inhibition of human BL-70 cell growth in a cell viability assay.; assay type: functional, cell-based; conditions: Homo sapiens, BL-70
# NCI-H1522 = experiment: cells; assay type: functional, cell-based, Homo sapiens; conditions: Homo sapiens, NCI-H1522;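 further: growth inhibition of NCI-H1522 cells, read out with a cell viability assay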
# Description: SANGER: Inhibition of human NCI-H1522 cell growth in a cell viability assay.
# RPMI-2650 = experiment: cells; assay type: functional, cell-based; conditions: Homo sapiens
# Description: SANGER: Inhibition of human RPMI-2650 cell growth in a cell viability assay.
# NCI-H1417 = experiment: cells; assay type: functional, cell-based, Homo sapiens; conditions: Homo sapiens, NCI-H1417;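 further: human NCI-H1417 cells, growth inhibition determined with a cell viability readout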
# Description: SANGER: Inhibition of human NCI-H1417 cell growth in a cell viability assay.
# A 172 = experiment: cells; assay type: functional, cell-based; conditions: Homo sapiens;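 further: growth inhibition of A172 cells, measured with a cell viability readout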
# Description: SANGER: Inhibition of human A172 cell growth in a cell viability assay.
# 23132-87 = experiment: cells; assay type: functional, cell-based; conditions: Homo sapiens
# Description: SANGER: Inhibition of human 23132-87 cell growth in a cell viability assay.
# MIA PaCa-2 = experiment: cells; assay type: functional, cell-based; conditions: Homo sapiens;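 further: growth inhibition of MIA PaCa-2 cells, read out with a cell viability assay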
# Description: SANGER: Inhibition of human MIA-PaCa-2 cell growth in a cell viability assay.
# HT-3 = experiment: cells; assay type: functional, cell-based; conditions: Homo sapiens;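 further: growth inhibition measured with a cell viability readout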
# Description: SANGER: Inhibition of human HT-3 cell growth in a cell viability assay.
# A2058 = experiment: cells; assay type: functional, cell-based; conditions: Homo sapiens;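 further: reduction of A2058 cell growth, read out with a viability assay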
# Description: SANGER: Inhibition of human A2058 cell growth in a cell viability assay.
# SK-MES-1 = experiment: cells; assay type: functional, cell-based; conditions: Homo sapiens;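 further: growth inhibition of human SK-MES-1 cells, read out with a cell viability assay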
# Description: SANGER: Inhibition of human SK-MES-1 cell growth in a cell viability assay.
# DBTRG-05MG = experiment: cells; assay type: functional, cell-based; conditions: Homo sapiens;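 further: cell viability assay measuring growth inhibition of human DBTRG-05MG cells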
# Description: SANGER: Inhibition of human DBTRG-05MG cell growth in a cell viability assay.
# SW837 = experiment: cells; assay type: functional, cell-based; conditions: Homo sapiens;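 further: growth inhibition of SW837 cells, determined with a cell viability assay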
# Description: SANGER: Inhibition of human SW837 cell growth in a cell viability assay.
# CAL-54 = experiment: cells; assay type: functional, cell-based; conditions: Homo sapiens;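 further: growth inhibition of CAL-54 cells, read out by a viability measurement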
# Description: SANGER: Inhibition of human CAL-54 cell growth in a cell viability assay.
# ST486 = experiment: SANGER: Inhibition of human ST486 cell growth in a cell viability assay.; assay type: functional, cell-based; conditions: Homo sapiens, ST486
# LCLC-97TM1 = experiment: cells; assay type: functional, cell-based; conditions: Homo sapiens;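 further: cell viability assay measuring growth inhibition of human LCLC-97TM1 cells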
# Description: SANGER: Inhibition of human LCLC-97TM1 cell growth in a cell viability assay.
# HT55 = experiment: cells; assay type: functional, cell-based; conditions: Homo sapiens;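 further: cell viability readout measuring growth inhibition of human HT55 cells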
# Description: SANGER: Inhibition of human HT55 cell growth in a cell viability assay.
# OVCAR-3 = experiment: cells; assay type: functional, cell-based; conditions: Homo sapiens;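 further: growth inhibition of human OVCAR-3 cells, determined by a cell viability assay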
# Description: SANGER: Inhibition of human OVCAR-3 cell growth in a cell viability assay.
# CWR22R = experiment: cells; assay type: functional, cell-based; conditions: Homo sapiens, 22Rv1;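 further: growth inhibition of 22Rv1 cells, read out with a cell viability assay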
# Description: SANGER: Inhibition of human 22RV1 cell growth in a cell viability assay.
# SKG-IIIa = experiment: cells; assay type: functional, cell-based; conditions: Homo sapiens;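 further: cell growth inhibition, read out with a cell viability assay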
# Description: SANGER: Inhibition of human SKG-IIIa cell growth in a cell viability assay.
# NCI-H2228 = experiment: cells; assay type: functional, cell-based; conditions: Homo sapiens;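 further: growth inhibition of human NCI-H2228 cells, read out by a cell viability assay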
# Description: SANGER: Inhibition of human NCI-H2228 cell growth in a cell viability assay.
# HCT-116 = experiment: cells; assay type: functional, cell-based; conditions: Homo sapiens
# Description: SANGER: Inhibition of human HCT-116 cell growth in a cell viability assay.
# Hs-578T = experiment: cells; assay type: functional, cell-based; conditions: Homo sapiens
# Description: SANGER: Inhibition of human Hs-578-T cell growth in a cell viability assay.
# SW780 = experiment: cells; assay type: functional, cell-based; conditions: Homo sapiens;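 further: growth inhibition of the cells, read out with a cell viability assay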
# Description: SANGER: Inhibition of human SW780 cell growth in a cell viability assay.
# DG-75 = experiment: cells; assay type: functional, cell-based, Homo sapiens; conditions: Homo sapiens, DG-75;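 further: growth inhibition of DG-75 cells, read out with a cell viability assay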
# Description: SANGER: Inhibition of human DG-75 cell growth in a cell viability assay.
# LU-99A = experiment: cells; assay type: functional, cell-based; conditions: Homo sapiens;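 further: growth inhibition of LU-99A cells, read out with a cell viability assay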
# Description: SANGER: Inhibition of human LU-99A cell growth in a cell viability assay.
# CAL-72 = experiment: cells; assay type: functional, cell-based; conditions: Homo sapiens;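 further: cell viability assay measuring inhibition of proliferation in the CAL-72 cell line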
# Description: SANGER: Inhibition of human CAL-72 cell growth in a cell viability assay.
# H4 = experiment: cells; assay type: functional, cell-based; conditions: Homo sapiens
# Description: SANGER: Inhibition of human H4 cell growth in a cell viability assay.
# SNU-423 = experiment: cells; assay type: functional, cell-based; conditions: Homo sapiens
# Description: SANGER: Inhibition of human SNU-423 cell growth in a cell viability assay.
# CaR-1 = experiment: cells; assay type: functional, cell-based; conditions: Homo sapiens;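 further: growth inhibition of human CaR-1 cancer cells, read out with a cell viability assay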
# Description: SANGER: Inhibition of human CaR-1 cell growth in a cell viability assay.
# VMRC-RCZ = experiment: cells; assay type: functional, cell-based; conditions: Homo sapiens
# Description: SANGER: Inhibition of human VMRC-RCZ cell growth in a cell viability assay.
# CAL-12T = experiment: cells; assay type: functional, cell-based; conditions: Homo sapiens;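 further: growth inhibition of human CAL-12T cells, read out with a cell viability assay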
# Description: SANGER: Inhibition of human CAL-12T cell growth in a cell viability assay.
# BL-41 = experiment: cells; assay type: functional, cell-based; conditions: Homo sapiens;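 further: growth inhibition of human BL-41 cells, read out with a cell viability assay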
# Description: SANGER: Inhibition of human BL-41 cell growth in a cell viability assay.
# A2780 = experiment: cells; assay type: functional, cell-based; conditions: Homo sapiens;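 further: growth inhibition of A2780 cells, read out with a cell viability assay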
# Description: SANGER: Inhibition of human A2780 cell growth in a cell viability assay.
# NCI-H2347 = experiment: cells; assay type: functional, cell-based; conditions: Homo sapiens;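 further: growth inhibition of the cell line, read out with a cell viability assay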
# Description: SANGER: Inhibition of human NCI-H2347 cell growth in a cell viability assay.
# COR-L23 = experiment: cells; assay type: functional, cell-based; conditions: Homo sapiens;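 further: cell viability assay measuring how strongly compounds suppress growth of COR-L23 cells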
# Description: SANGER: Inhibition of human COR-L23 cell growth in a cell viability assay.
# LOUCY = experiment: cells; assay type: functional, cell-based, Homo sapiens; conditions: Homo sapiens, LOUCY;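 further: growth inhibition of human LOUCY cells, read out with a cell viability assay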
# Description: SANGER: Inhibition of human LOUCY cell growth in a cell viability assay.
# PF-382 = experiment: cells; assay type: functional, cell-based, Homo sapiens; conditions: Homo sapiens, PF-382
# Description: SANGER: Inhibition of human PF-382 cell growth in a cell viability assay.
# TE-15 = experiment: cells; assay type: functional, cell-based, Homo sapiens; conditions: Homo sapiens, TE-15;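 further: cell viability readout of growth inhibition in TE-15 cells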
# Description: SANGER: Inhibition of human TE-15 cell growth in a cell viability assay.
# SW13 = experiment: cells; assay type: functional, cell-based; conditions: Homo sapiens;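 further: IC50 is inhibition of SW13 cell growth, read out with a cell viability assay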
# Description: SANGER: Inhibition of human SW13 cell growth in a cell viability assay.
# DMS-79 = experiment: cells; assay type: functional, cell-based, Homo sapiens; conditions: Homo sapiens, DMS-79
# Description: SANGER: Inhibition of human DMS-79 cell growth in a cell viability assay.
# EB2 = experiment: cells; assay type: functional, cell-based, Homo sapiens; conditions: Homo sapiens, EB2;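 further: growth inhibition of EB2 cells, read out with a cell viability assay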
# Description: SANGER: Inhibition of human EB2 cell growth in a cell viability assay.
# SW948 = experiment: cells; assay type: functional, cell-based; conditions: Homo sapiens;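 further: growth inhibition of SW948 cells, read out with a cell viability assay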
# Description: SANGER: Inhibition of human SW948 cell growth in a cell viability assay.
# 769-P = experiment: cells; assay type: functional, cell-based; conditions: Homo sapiens
# Description: SANGER: Inhibition of human 769-P cell growth in a cell viability assay.
# MC-CAR = experiment: cells; assay type: functional, cell-based, Homo sapiens; conditions: Homo sapiens, MC-CAR;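 further: growth inhibition of the human MC-CAR cell line, read out by a cell viability assay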
# Description: SANGER: Inhibition of human MC-CAR cell growth in a cell viability assay.
# NCI-H292 = experiment: cells; assay type: functional, cell-based; conditions: Homo sapiens;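 further: growth inhibition of NCI-H292 cells, read out with a cell viability assay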
# Description: SANGER: Inhibition of human NCI-H292 cell growth in a cell viability assay.
# SW1463 = experiment: cells; assay type: functional, cell-based; conditions: Homo sapiens;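 further: growth inhibition of SW1463 cells, determined with a cell viability assay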
# Description: SANGER: Inhibition of human SW1463 cell growth in a cell viability assay.
# LB373-MEL-D = experiment: cells; assay type: functional, cell-based, Homo sapiens; conditions: Homo sapiens, LB373-MEL-D;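 further: growth inhibition of the cell line, read out in a cell viability assay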
# Description: SANGER: Inhibition of human LB373-MEL-D cell growth in a cell viability assay.
smiles,measurement,setting,value
O=S(=O)(O)c1ccc2cc(/N=N/c3cc(S(=O)(=O)O)c4cccnc4c3O)ccc2c1,pIC50,NCI-H441,< 4.80
same,pIC50,NCI-H2141,< 4.80
same,pIC50,TCC-SUP,< 4.80
same,pIC50,UMUC3,< 4.80
same,pIC50,RT-112,< 4.80
same,pIC50,MCF7,< 4.80
same,pIC50,OAW-28,< 4.80
same,pIC50,CAL-39,< 4.80
same,pIC50,TUR,< 4.80
same,pIC50,HT-1080,< 4.80
same,pIC50,Ca-Ski,< 4.80
same,pIC50,LC4-1,< 4.80
same,pIC50,NCI-H358,< 4.80
same,pIC50,BL-70,< 4.80
same,pIC50,NCI-H1522,< 4.80
same,pIC50,RPMI-2650,< 4.80
same,pIC50,NCI-H1417,< 4.80
same,pIC50,A 172,< 4.80
same,pIC50,23132-87,< 4.80
same,pIC50,MIA PaCa-2,< 4.80
same,pIC50,HT-3,< 4.80
same,pIC50,A2058,< 4.80
same,pIC50,SK-MES-1,< 4.80
same,pIC50,DBTRG-05MG,< 4.80
same,pIC50,SW837,< 4.80
same,pIC50,CAL-54,< 4.80
same,pIC50,ST486,< 4.80
same,pIC50,LCLC-97TM1,< 4.80
same,pIC50,HT55,< 4.80
same,pIC50,OVCAR-3,< 4.80
same,pIC50,CWR22R,< 4.80
same,pIC50,SKG-IIIa,< 4.80
same,pIC50,NCI-H2228,< 4.80
same,pIC50,HCT-116,< 4.80
same,pIC50,Hs-578T,< 4.80
same,pIC50,SW780,< 4.80
same,pIC50,DG-75,< 4.80
same,pIC50,LU-99A,< 4.80
same,pIC50,CAL-72,< 4.80
same,pIC50,H4,< 4.80
same,pIC50,SNU-423,< 4.80
same,pIC50,CaR-1,< 4.80
same,pIC50,VMRC-RCZ,< 4.80
same,pIC50,CAL-12T,< 4.80
same,pIC50,BL-41,< 4.80
same,pIC50,A2780,< 4.80
same,pIC50,NCI-H2347,< 4.80
same,pIC50,COR-L23,< 4.80
same,pIC50,LOUCY,< 4.80
same,pIC50,PF-382,< 4.80
same,pIC50,TE-15,< 4.80
same,pIC50,SW13,< 4.80
same,pIC50,DMS-79,< 4.80
same,pIC50,EB2,< 4.80
same,pIC50,SW948,< 4.80
same,pIC50,769-P,< 4.80
same,pIC50,MC-CAR,< 4.80
same,pIC50,NCI-H292,< 4.80
same,pIC50,SW1463,< 4.80
same,pIC50,LB373-MEL-D,< 4.80
Cc1ccc(C(=O)Nc2ccc(CN3CCN(C)CC3)c(C(F)(F)F)c2)cc1C#Cc1cnc2cccnn12 [PONATINIB],pIC50,NCI-H441,< 6.29
same,pIC50,NCI-H2141,< 6.29
same,pIC50,UMUC3,< 6.29
same,pIC50,RT-112,6.62
same,pIC50,MCF7,< 6.29
same,pIC50,OAW-28,< 6.29
same,pIC50,CAL-39,6.33
same,pIC50,HT-1080,< 6.29
same,pIC50,Ca-Ski,< 6.29
same,pIC50,LC4-1,< 6.29
same,pIC50,NCI-H358,< 6.29
same,pIC50,BL-70,7.66
same,pIC50,NCI-H1522,< 6.29
same,pIC50,RPMI-2650,< 6.29
same,pIC50,NCI-H1417,< 6.29
same,pIC50,A 172,6.53
same,pIC50,23132-87,< 6.29
same,pIC50,MIA PaCa-2,< 6.29
same,pIC50,HT-3,< 6.29
same,pIC50,A2058,< 6.29
same,pIC50,SK-MES-1,< 6.29
same,pIC50,DBTRG-05MG,6.42
same,pIC50,SW837,< 6.29
same,pIC50,CAL-54,< 6.29
same,pIC50,ST486,< 6.29
same,pIC50,LCLC-97TM1,6.34
same,pIC50,HT55,< 6.29
same,pIC50,OVCAR-3,< 6.29
same,pIC50,CWR22R,< 6.29
same,pIC50,SKG-IIIa,< 6.29
same,pIC50,NCI-H2228,< 6.29
same,pIC50,HCT-116,6.68
same,pIC50,Hs-578T,< 6.29
same,pIC50,SW780,6.37
same,pIC50,DG-75,< 6.29
same,pIC50,LU-99A,< 6.29
same,pIC50,CAL-72,< 6.29
same,pIC50,H4,6.37
same,pIC50,SNU-423,< 6.29
same,pIC50,CaR-1,< 6.29
same,pIC50,CAL-12T,< 6.29
same,pIC50,BL-41,< 6.29
same,pIC50,A2780,6.46
same,pIC50,NCI-H2347,< 6.29
same,pIC50,COR-L23,< 6.29
same,pIC50,LOUCY,< 6.29
same,pIC50,PF-382,6.68
same,pIC50,TE-15,6.58
same,pIC50,SW13,< 6.29
same,pIC50,DMS-79,< 6.29
same,pIC50,EB2,7.25
same,pIC50,SW948,< 6.29
same,pIC50,769-P,< 6.29
same,pIC50,MC-CAR,< 6.29
same,pIC50,NCI-H292,< 6.29
same,pIC50,SW1463,< 6.29
same,pIC50,LB373-MEL-D,< 6.29
